System: c-MYC G4 DNA (Pu27) (DNA, G4) TGAGGGTGGGTAGGGTGGGTAA
Assay: UV-Vis absorbance titration
Conditions: 100 mM K+ (KCl); 10 mM Tris-HCl pH 7.4, 1 mM EDTA, 25 °C; 5 µM DNA, 0-20 µM EGCG; no Kd determined

O=C(O[C@@H]1Cc2c(O)cc(O)cc2O[C@@H]1c1cc(O)c(O)c(O)c1)c1cc(O)c(O)c(O)c1
binding: yes

From PMC12114839 (2025)
